Results published in PubChem BioAssay AID330 (DTP/NCI, 2004).
“And” between values parts separate entries of the source, which are not always exact repeats. Identical values can stand only once. Inconclusive results and toxic doses are left out. The calls were made as follows: active = survival T/C of 150% or more; inactive = T/C below 125% in these data.

Test system: P388 leukemia ip, CD2F1 mice, survival T/C
Assay: NCI In Vivo Anticancer Drug Screen. Data for tumor model P388 Leukemia (intraperitoneal) in CD2F1 (CDF1) mice
Conditions: endpoint: median survival time, higher = longer survival
Procedure, shortened: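 Mice carrying the transplanted tumor received test compound or vehicle. Survival was recorded in each group, and the value is the treated-group measurement divided by that of the vehicle-treated control group.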

[1] = dose: 25.0 mg/kg/injection, schedule: Q01DX009 (ip), vehicle: saline
[2] = dose: 50.0 mg/kg/injection, schedule: Q01DX009 (ip), vehicle: saline

Measured: T/C

CCN(CC)CCCNc1nccc2c(C)c3[nH]c4ccncc4c3cc12
inactive: dose: 0.5 mg/kg/injection, schedule: Q04DX003 (iv), vehicle: other 110 % of control | dose: 1.0 mg/kg/injection, schedule: Q04DX003 (iv), vehicle: other 110 % of control | dose: 2.0 mg/kg/injection, schedule: Q04DX003 (iv), vehicle: other 112 % of control | dose: 4.0 mg/kg/injection, schedule: Q04DX003 (iv), vehicle: other 122 % of control
active: dose: 0.5 mg/kg/injection, schedule: Q04DX003 (ip), vehicle: other 162 % of control | dose: 0.58 mg/kg/injection, schedule: Q04DX003 (ip), vehicle: other 155 % of control | dose: 0.97 mg/kg/injection, schedule: Q04DX003 (ip), vehicle: other 156 % of control | dose: 1.62 mg/kg/injection, schedule: Q04DX003 (ip), vehicle: other 182 % of control | dose: 2.7 mg/kg/injection, schedule: Q04DX003 (ip), vehicle: other 189 % of control | dose: 3.24 mg/kg/injection, schedule: Q04DX002 (ip), vehicle: other 170 % of control and 175 % of control | dose: 3.89 mg/kg/injection, schedule: Q04DX002 (ip), vehicle: other 179 % of control | dose: 4.5 mg/kg/injection, schedule: Q04DX003 (ip), vehicle: other 196 % of control | dose: 5.4 mg/kg/injection, schedule: Q04DX002 (ip), vehicle: other 168 % of control and 185 % of control | dose: 6.48 mg/kg/injection, schedule: Q04DX002 (ip), vehicle: other 213 % of control | dose: 7.5 mg/kg/injection, schedule: Q04DX003 (ip), vehicle: other 182 % of control | dose: 9.0 mg/kg/injection, schedule: Q04DX002 (ip), vehicle: other 200 % of control and 207 % of control | dose: 10.8 mg/kg/injection, schedule: Q04DX002 (ip), vehicle: other 194 % of control | dose: 15.0 mg/kg/injection, schedule: Q04DX002 (ip), vehicle: other 200 % of control and 217 % of control | dose: 18.0 mg/kg/injection, schedule: Q04DX002 (ip), vehicle: other 215 % of control

Cc1ccc(C(O)(c2ccc(C)cc2)C(C)(C)O)cc1
inactive: dose: 60.0 mg/kg/injection, schedule: Q01DX005 (ip), vehicle: saline with Tween-80 98 % of control | dose: 120.0 mg/kg/injection, schedule: Q01DX005 (ip), vehicle: saline with Tween-80 100 % of control | dose: 240.0 mg/kg/injection, schedule: Q01DX005 (ip), vehicle: saline with Tween-80 103 % of control

CC(=O)Oc1cccc2c1C(=O)C1CC=CC(OC(C)=O)C1C2=O (stereo not given)
inactive: dose: 60.0 mg/kg/injection, schedule: Q01DX005 (ip), vehicle: Klucel (hydroxypropylcellulose) (HPC) 100 % of control | dose: 120.0 mg/kg/injection, schedule: Q01DX005 (ip), vehicle: Klucel (hydroxypropylcellulose) (HPC) 100 % of control | dose: 240.0 mg/kg/injection, schedule: Q01DX005 (ip), vehicle: Klucel (hydroxypropylcellulose) (HPC) 100 % of control

N#CNC1=NC(c2ccccc2)CC=C1 (stereo not given)
inactive: dose: 50.0 mg/kg/injection, schedule: Q01DX009 (ip), vehicle: saline with Tween-80 102 % of control | dose: 100.0 mg/kg/injection, schedule: Q01DX009 (ip), vehicle: saline with Tween-80 113 % of control

CCCCCCCCCCCCNCC(=O)O
inactive: [1] 109 % of control | [2] 113 % of control

C(=N/OC(c1ccccc1)(c1ccccc1)c1ccccc1)/c1ccccc1
inactive: dose: 25.0 mg/kg/injection, schedule: Q04DX003 (ip), vehicle: saline 104 % of control | dose: 75.0 mg/kg/injection, schedule: Q04DX003 (ip), vehicle: saline 100 % of control | dose: 150.0 mg/kg/injection, schedule: Q04DX003 (ip), vehicle: saline 95 % of control

S=C(Nc1ccc(Cl)c(Cl)c1)SC1CCCCC1
inactive: [1] 107 % of control | [2] 91 % of control | dose: 50.0 mg/kg/injection, schedule: Q01DX009 (ip), vehicle: suspension in saline 105 % of control | dose: 100.0 mg/kg/injection, schedule: Q01DX009 (ip), vehicle: saline 100 % of control | dose: 100.0 mg/kg/injection, schedule: Q01DX009 (ip), vehicle: suspension in saline 115 % of control | dose: 200.0 mg/kg/injection, schedule: Q01DX009 (ip), vehicle: saline 123 % of control | dose: 200.0 mg/kg/injection, schedule: Q01DX009 (ip), vehicle: suspension in saline 120 % of control

CCOC(=O)CC(=O)NCCc1cccc(OC)c1OC
inactive: dose: 100.0 mg/kg/injection, schedule: Q04DX003 (ip), vehicle: other 100 % of control | dose: 200.0 mg/kg/injection, schedule: Q04DX003 (ip), vehicle: other 100 % of control | dose: 400.0 mg/kg/injection, schedule: Q04DX003 (ip), vehicle: other 105 % of control

O=C(O)CCN(Cl)Cl
inactive: dose: 60.0 mg/kg/injection, schedule: Q01DX005 (ip), vehicle: saline 98 % of control | dose: 120.0 mg/kg/injection, schedule: Q01DX005 (ip), vehicle: saline 104 % of control | dose: 240.0 mg/kg/injection, schedule: Q01DX005 (ip), vehicle: saline 95 % of control
